Marks after values point to notes of the source that are not given here.
Columns and labels:
Assay type in all cases: in vivo, male Wistar rats
[1] = Open field activity monitor, test for sedation in normal rats; conditions: for largest non-sedating dose: intraperitoneally, rats; for open field activity monitor, mean: male, Wistar, rat, in vivo, ip, 20 min
Experimental: (§1) Experiments were performed on male Wistar rats (wt 150-220g). Two series of experiments were performed in an observer blinded fashion with saline (negative) controls and GABAPentin (positive) controls. The investigations were in two stages: • 1. a range of doses of aprepitant (an example of a NK antagonist) given alone and in combination with flupirtine (an example of an inhibitor of neuronal excitation) were tested for sedating effects using the open field activity monitor.
Individual rats (several rats per treatment group) were placed in an open field activity monitor in which the movement of the rat could be monitored remotely by the frequency and number of interruption of infrared beams directed across the box in a grid. The activity in the monitor was measured for periods of 20 minutes in each rat. This was performed in groups of rats that received (1) control injection of saline, (2) GABAPentin 50 mg/kg as the maximum dose of that drug found previously not to be sedating (drug positive control) administered intraperitoneally, or (3) after pharmacological interventions that involve the administration of aprepitant and flupirtine given at a range of doses alone and in combination. If a rat was sedated by a drug or drug combination, the movements recorded were less. Since rats become habituated to the open field monitor, only one experiment was performed on each rat with this test.
These were the upper dose limits for subsequent experiments investigating the analgesic effects of these drugs administered together in combinations.

[2] = tested on: streptozotocin-induced diabetic neuropathy; experiment: Reversal of allodynia (von Frey hair) in streptozotocin-induced diabetic neuropathy; conditions: each drug alone at non sedating doses, intraperitoneal
Experimental: as §1
Rats were injected intraperitoneally with streptozotocin (150 mg per kg total dose—Sapphire Bioscience) dissolved in sodium chloride 0.9%. The induction of diabetes was confirmed one week after injection of streptozotocin and weekly thereafter by measurement of tail vein blood glucose levels with Ames Glucofilm test strips and Ames Glucometer blood glucose meter. Only animals with blood glucose levels greater than or equal to 15 mM and maintained continuously for 5 weeks were deemed to be diabetic. […] At the end of five weeks these rats were assessed with the methods of measuring hyperalgesia (paw flick—Hargreaves method) and allodynia (withdrawal from von Frey Hair stimulation at normally non noxious intensity) to elucidate the antinociceptive effects of flupirtine and aprepitant given intraperitoneally alone and in combination (with saline and GABApentin for comparison).

[3] = tested on: streptozotocin-induced diabetic neuropathy; experiment: Reversal of heat hyperalgesia (paw flick, Hargreaves) in streptozotocin-induced diabetic neuropathy
Experimental: Male Wistar rats (wt 50-70 g) were given streptozotocin 150 mg/kg intraperitoneally. […] The largest non-sedating doses of GABAPentin (50 mg/kg intraperitoneally) and aprepitant (6.25 mg/kg intraperitoneally) were assessed for possible analgesic effect by measurement of the percentage reversal of the hyperalgesia caused by the diabetes assessed by withdrawal from noxious heat applied to the hind paw.
Experiments were performed in an observer blinded fashion with parallel saline treated controls:

| SMILES | largest non-sedating dose [1] [mg/kg] | open field activity monitor, mean ([1]; 6.25 mg/kg) | open field activity monitor, mean ([1]; 12.5 mg/kg) | open field activity monitor, mean ([1]; 25 mg/kg) | open field activity monitor, mean ([1]; 50 mg/kg) | open field activity monitor, mean ([1]; 100 mg/kg) | antinociception with respect to allodynia [2] | reversal of hyperalgesia (statistics) ([3]; GABAPentin 50 mg/kg alone vs saline, P<0.01) | percentage reversal of the hyperalgesia, mean ([3]; GABAPentin 50 mg/kg intraperitoneally alone, noxious heat to hind paw, n=17) |
| --- | --- | --- | --- | --- | --- | --- | --- | --- | --- |
| C[C@@H](O[C@H]1OCCN(Cc2n[nH]c(=O)[nH]2)[C@H]1c1ccc(F)cc1)c1cc(C(F)(F)F)cc(C(F)(F)F)c1 [aprepitant] | 6.25 | 869.0 | 915.0* | 964.6* | 976.6* | 1058.2 | Neither drug at non sedating doses causes significant antinociception |  |  |
| NCC1(CC(=O)O)CCCCC1 [GABAPentin] | 50 |  |  |  |  |  |  | statistically significant reversal of hyperalgesia | 27.67 |
